Here are results for six molecules from patent US20150004637A1, “SYSTEMS AND METHODS FOR IMAGING AT HIGH SPATIAL AND/OR TEMPORAL PRECISION” (President and Fellows of Harvard College, priority 2011, published 2015).

Like-named read-outs stand apart in the source and are kept apart here.

One data set deals with membrane potential. To be noted: literature values, cited from earlier work; for Approx ΔF/F per 100 mV: ΔR/R where comment says ratiometric.
The nature of data set [1]: Schiff base pKa and fluorescence of GPR / PROPS. The data set is classed as physicochemical.

For the molecule `CCCCN(CCCC)c1ccc(/C=C/C=C/C=C/c2cc[n+](CCCCS(=O)(=O)[O-])cc2)cc1` [RH237], in the data set on membrane potential, the Approx response time is given as below 1 ms and the “Approx ΔF/F per 100 mV” value was 11%.

As for `CCCCCN(CCCCC)c1ccc(/C=C/C=C/c2cc[n+](CCCCS(=O)(=O)[O-])cc2)cc1` [RH421], in the data set on membrane potential, the Approx response time is on record as below 1 ms and the “Approx ΔF/F per 100 mV” value was 21%.

With `CCCCN(CCCC)c1ccc2cc(/C=C/c3cc[n+](CCCS(=O)(=O)[O-])cc3)ccc2c1` [di-4-ANEPPS], in the data set on membrane potential, the Approx response time is below 1 ms and the “Approx ΔF/F per 100 mV” value is given as 8%.

For `CCCCCCCCN(CCCCCCCC)c1ccc2cc(/C=C/c3cc[n+](CCCS(=O)(=O)[O-])cc3)ccc2c1` [di-8-ANEPPS], in the data set on membrane potential, the Approx response time is on record as below 1 ms and the “Approx ΔF/F per 100 mV” value is 10%.

For Flash, in the data set with membrane potential, the Approx response time is 2.8 to 85 ms and the “Approx ΔF/F per 100 mV” value is on record as 5.1%.

B1: GPR: Green-absorbing proteorhodopsin, light-driven proton pump found in marine bacteria (protein)
chain: TMGKLLLILGSVIALPTFAAGGGDLDASDYTGVSFWLVTAALLASTVFFFVERDRVSAKWKTSLTVSGLVTGIAFWHYMYMRGVWIETGDSPTVFRYIDWLLTVPLLICEFYLILAAATNVAAGLFKKLLVGSLVMLVFGYMGEAGIMNAWPAFIIGCLAWVYMIYELYAGEGKSACNTASPSVQSAYNTMMAIIVFGWAIYPVGYFTGYLMGDGGSALNLNLIYNLADFVNKILFGLIIWNVAVKESSNA
modifications: /note=“Description of Unknown Green-absorbing proteorhodopsin polypeptide from an uncultured marine bacterium”
Consider B1, for which the “pKa of the Schiff Base” value in data set [1] was around 12; in data set [1] (listed as green proteorhodopsin) it was above 12.
